Results reported in the NIST ThermoML archive (doi:10.1016/j.fluid.2010.01.025).
Numbers after ± are expanded uncertainties.

How the values were obtained:
[1] = Crystal; DTA
[2] = Molar enthalpy of transition or fusion; settings: Crystal; DSC

Normal melting temperature [1]: 42.7 ± 0.4 °C
Molar enthalpy of transition or fusion [2]: 2.71 ± 0.0837 kcal/mol
SMILES: CCCC[n+]1cccc(C)c1.Cc1ccc(S(=O)(=O)[O-])cc1 [1-butyl-3-methylpyridinium 4-methylbenzenesulfonate]
